# Results as given in patent publication US9426996B2, “Use of benzoxaboroles as volatile antimicrobial agents on meats, plants, or plant parts” (AgroFresh Inc., priority 2013, dated 2016).
# Columns and labels:
# Botrytis cinerea [1] = assay: in vivo volatile bioassay using strawberry
# Protocol: In order to assess the in vivo activity of volatile antimicrobial compounds, a volatile bioassay is developed using strawberry. Two fruit are placed inside a 240 mL jar, with the calyx facing downwards. […] The acetone is permitted to evaporate for 5 minutes. The jars are then capped with the lids containing the fungicide, and placed for 5 days at 21° C. After storage, fruit are evaluated for incidence and severity of disease and appearance of phytotoxicity.
# Botrytis cinerea [2] = assay: in vivo strawberry assay, release from cellulose paper and Tyvek fabric; conditions: strawberries
# Protocol: An in vivo assay is used to evaluate the ability of Compound A to volatilize from different materials and control fungal pathogens. Eight strawberries are placed in a clamshell with stem end facing downwards. […] The clamshells are then placed in a 10.8-cup SnapWare airtight container (Model #109842). Compound A is dissolved in acetone and then evenly sprayed onto cellulose paper and Tyvek® fabric at a rate of 200 milligrams per square meter (mg/m^2). The acetone is allowed to evaporate. Likewise Compound A is dissolved in propylene glycol and evenly sprayed onto cellulose paper and Tyvek® fabric. No evaporation is attempted in this case.
# Pieces of material are cut to the appropriate dimensions to deliver a final headspace concentration of 0.4, 2, or 10 mg/L. The containers are close, and placed for three days at 21° C. After treatment, fruit are stored for an additional two days at 21° C. and then evaluated for incidence (%) and severity (0 to 4) of disease, with the results summarized in Table 23.
# Botrytis cinerea [3] = assay: in vivo strawberry assay, release from cardboard or filter paper; conditions: strawberries
# Source text: An in vivo assay is used to evaluate the ability of Compound A to volatilize from different materials and control fungal pathogens. Eight strawberries are placed in a clamshell with the stem end facing downwards. […] The clamshells are then placed in a 10.8-cup SnapWare airtight container (Model #109842). As a substrate for Compound A, either a 42.5 mm Whatman #1 filter disk (Cat. No. 1001-042) placed on a watch glass or 10 square centimeter (cm^2) pieces of cardboard typically used for packaging strawberries was used. Compound A is dissolved in acetone and either pipetted on the disk or painted on the cardboard at a rate to achieve a final headspace concentration of 0.4, 2, or 10 mg/L. The acetone is permitted to evaporate for five minutes. The containers are closed, and placed for three days at 21° C. After treatment, fruit are stored for an additional two days at 21° C. and then evaluated for incidence (%) and severity (0 to 4) of disease, with the results summarized in Table 24.
# Penicillium digitatum = assay: in vivo contact drench assay on oranges
# Protocol: In order to assess the activity of Compound A (FIG. 1) as a contact drench fungicide, an in vivo assay is developed. […] Compound A is dissolved in water to achieve a final treatment solution concentration of 250, 50, or 10 mg/L. The fruit is dipped in Compound A solution for 1 minute and allowed to dry for 1 hour. Fruit wounds are then inoculated with 30 μL of 1×10^6 per mL Penicillium expansum spore suspension (apple) or Penicillium digitatum spore suspension (orange). Clamshells are then placed in a 10.8-cup SnapWare airtight container (Model #109842) and incubated for 3 days at 21° C.
# Botrytis cinerea [4] = assay: in vitro spore germination and mycelial growth after transfer; assay type: cell-based; conditions: for Mycelial growth after transfer (%): 3 d after transfer to clean PDA
# Protocol: In order to assess the activity of Compound A as a volatile fungicide, an in vitro assay is developed to evaluate spore germination. 3.5-cm Petri plates are filled with 2 mL of water agar. After cooling, 1 μL of 1×10^5 per mL Botrytis cinerea spore suspension is spot-pipetted into the center of the plate. Plates are inoculated immediately prior to volatile fungicide treatment. A Whatman #1 filter disk (Cat. No. 1001-0155) is placed, in duplicate, on the underside of a plate lid. […] After 24 hours of storage at 23° C., 100 spores are counted for percent germination, where germination is defined as a germ tube that has extended a distance greater than the length of the spore. After counting, treatment is removed, and the plates are resealed. After an additional 24 hours, 100 spores are again counted. Plugs are then transferred to a clean plate containing full-strength PDA and allowed to incubate at 23° C. for an additional three days.
# Botrytis cinerea [5] = assay: in vivo dose by time volatile bioassay using strawberry; conditions: 0.125 mg, 3-day treatment at 21° C. plus 2 days at 21° C., vs acetone only control
# Alternaria alternata = assay: combination treatment with 1-MCP on broccoli; assay type: in vivo; set-up: scale not given here; conditions: 11 C.
smiles,measurement,setting,value
OB1OCc2cc(F)ccc21 [Compound A],Percent (%) Incidence of Botrytis cinerea on Strawberry (in vivo),"Botrytis cinerea [1]; 0.005 mg/disk, 5 days at 21° C.",75%
same,Percent (%) Incidence of Botrytis cinerea on Strawberry (in vivo),"Botrytis cinerea [1]; 0.01 mg/disk, 5 days at 21° C.",100%
same,Percent (%) Incidence of Botrytis cinerea on Strawberry (in vivo),"Botrytis cinerea [1]; 0.02 mg/disk, 5 days at 21° C.",50%
same,Percent (%) Incidence of Botrytis cinerea on Strawberry (in vivo),"Botrytis cinerea [1]; 0.04 mg/disk, 5 days at 21° C.",75%
same,Percent (%) Incidence of Botrytis cinerea on Strawberry (in vivo),"Botrytis cinerea [1]; 0.08 mg/disk, 5 days at 21° C.",0%
same,Percent (%) Incidence of Botrytis cinerea on Strawberry (in vivo),"Botrytis cinerea [1]; 0.16 mg/disk, 5 days at 21° C.",0%
same,Percent (%) Incidence of Botrytis cinerea on Strawberry (in vivo),"Botrytis cinerea [1]; 0.32 mg/disk, 5 days at 21° C.",0%
same,Percent (%) Incidence of Botrytis cinerea on Strawberry (in vivo),"Botrytis cinerea [1]; 0.64 mg/disk, 5 days at 21° C.",0%
same,Percent (%) Incidence of Botrytis cinerea on Strawberry (in vivo),"Botrytis cinerea [1]; 1.25 mg/disk, 5 days at 21° C.",0%
same,Percent (%) Incidence of Botrytis cinerea on Strawberry (in vivo),"Botrytis cinerea [1]; 2.5 mg/disk, 5 days at 21° C.",0%
same,lowest rate with 100% control of Botrytis cinerea,"Botrytis cinerea [1]; strawberry, 5 days at 21° C.",0.16 mg/disk
same,appearance of phytotoxicity,"Botrytis cinerea [1]; strawberry, any of the rates evaluated (2.5 to 0.005 mg/disk)",no evidence of phytotoxicity
same,Incidence (%),"Botrytis cinerea [2]; 0.4 mg/L, Cellulose Paper",37.5%
same,Severity (0-4),"Botrytis cinerea [2]; 0.4 mg/L, Cellulose Paper",0.8
same,Incidence (%),"Botrytis cinerea [2]; 0.4 mg/L, Tyvek",31.3%
same,Severity (0-4),"Botrytis cinerea [2]; 0.4 mg/L, Tyvek",0.5
same,Incidence (%),"Botrytis cinerea [2]; 2 mg/L, Cellulose Paper",37.5%
same,Severity (0-4),"Botrytis cinerea [2]; 2 mg/L, Cellulose Paper",0.7
same,Incidence (%),"Botrytis cinerea [2]; 2 mg/L, Tyvek",6.3%
same,Severity (0-4),"Botrytis cinerea [2]; 2 mg/L, Tyvek",0.1
same,Severity (0-4),"Botrytis cinerea [2]; 10 mg/L, Cellulose Paper",0.2
same,Incidence (%),"Botrytis cinerea [2]; 10 mg/L, Tyvek",6.3%
same,Severity (0-4),"Botrytis cinerea [2]; 10 mg/L, Tyvek",0.3
same,Incidence (%),"Botrytis cinerea [3]; 0.4 mg/L, Cardboard",87.5%
same,Severity (0-4),"Botrytis cinerea [3]; 0.4 mg/L, Cardboard",0.9
same,Incidence (%),"Botrytis cinerea [3]; 0.4 mg/L, Filter Paper",56.3%
same,Severity (0-4),"Botrytis cinerea [3]; 0.4 mg/L, Filter Paper",2.5
same,Incidence (%),"Botrytis cinerea [3]; 2 mg/L, Cardboard",37.5%
same,Severity (0-4),"Botrytis cinerea [3]; 2 mg/L, Cardboard",0.3
same,Incidence (%),"Botrytis cinerea [3]; 2 mg/L, Filter Paper",37.5%
same,Severity (0-4),"Botrytis cinerea [3]; 2 mg/L, Filter Paper",0.6
same,Incidence (%),"Botrytis cinerea [3]; 10 mg/L, Cardboard",25%
same,Severity (0-4),"Botrytis cinerea [3]; 10 mg/L, Cardboard",0.2
same,Incidence (%),"Botrytis cinerea [3]; 10 mg/L, Filter Paper",18.8%
same,Severity (0-4),"Botrytis cinerea [3]; 10 mg/L, Filter Paper",0.3
same,Sporulation (mm),Penicillium digitatum; dip 10 mg/L,16.6 mm
same,Water soaked (mm),Penicillium digitatum; dip 10 mg/L,27.5 mm
same,Sporulation (mm),Penicillium digitatum; dip 50 mg/L,12.0 mm
same,Water soaked (mm),Penicillium digitatum; dip 50 mg/L,18.8 mm
same,Sporulation (mm),Penicillium digitatum; dip 250 mg/L,0.4 mm
same,Water soaked (mm),Penicillium digitatum; dip 250 mg/L,1.7 mm
same,Spore germination (%),"Botrytis cinerea [4]; 0.07 mg/L, 24 h + 24 h after treatment removal",10.0%
same,Spore germination (%),"Botrytis cinerea [4]; 0.07 mg/L, 24 h treatment",0.0%
same,Mycelial growth after transfer (%),Botrytis cinerea [4]; 0.07 mg/L,60.3%
same,Spore germination (%),"Botrytis cinerea [4]; 0.14 mg/L, 24 h + 24 h after treatment removal",0.0%
same,Spore germination (%),"Botrytis cinerea [4]; 0.14 mg/L, 24 h treatment",0.0%
same,Mycelial growth after transfer (%),Botrytis cinerea [4]; 0.14 mg/L,53.8%
same,Spore germination (%),"Botrytis cinerea [4]; 0.28 mg/L, 24 h + 24 h after treatment removal",0.0%
same,Spore germination (%),"Botrytis cinerea [4]; 0.28 mg/L, 24 h treatment",0.0%
same,Mycelial growth after transfer (%),Botrytis cinerea [4]; 0.28 mg/L,51.3%
same,Spore germination (%),"Botrytis cinerea [4]; 0.56 mg/L, 24 h + 24 h after treatment removal",0.0%
same,Spore germination (%),"Botrytis cinerea [4]; 0.56 mg/L, 24 h treatment",0.0%
same,Mycelial growth after transfer (%),Botrytis cinerea [4]; 0.56 mg/L,43.3%
same,Spore germination (%),"Botrytis cinerea [4]; 71.4 mg/L, 24 h + 24 h after treatment removal",0.0%
same,Spore germination (%),"Botrytis cinerea [4]; 71.4 mg/L, 24 h treatment",0.0%
same,Mycelial growth after transfer (%),Botrytis cinerea [4]; 71.4 mg/L,0.0%
same,Spore germination (%),"Botrytis cinerea [4]; 142.9 mg/L, 24 h + 24 h after treatment removal",0.0%
same,Spore germination (%),"Botrytis cinerea [4]; 142.9 mg/L, 24 h treatment",0.0%
same,Mycelial growth after transfer (%),Botrytis cinerea [4]; 142.9 mg/L,0.0%
same,fungicidal or fungistatic effect,Botrytis cinerea [4]; treated spores after the compound has been removed,fungicidal effect
same,in vivo inhibition of Botrytis cinerea,Botrytis cinerea [5],100%
same,Color Score,Alternaria alternata; 0.4 mg/L,1.75
same,Severity,Alternaria alternata; 0.4 mg/L,0.00
same,Color Score,Alternaria alternata; 2 mg/L,2.11
same,Severity,Alternaria alternata; 2 mg/L,0.00
